Results on five molecules are retold here after patent US9458480B2, “Microorganisms and methods for the biosynthesis of adipate, hexamethylenediamine and 6-aminocaproic acid” (GENOMATICA, INC., priority 2009, dated 2016).

Data set [1] deals with Lysine decarboxylase (EC 4.1.1.18) (Escherichia coli, UniProt P0A9H3). Conditions: E. coli enzyme; cited from earlier work.
The subject of data set [2] is E. coli. Kind of data set: Growth of E. coli in media containing various concentrations of 6-ACA. It counts as cell-based, Escherichia coli. How it is done:
E. coli was inoculated into media and grown in either aerobic (left and right bars) or anaerobic (middle bars) conditions. The cultures were grown for 48 hrs during the first trial and 30 hrs for a second trial under aerobic conditions (right bars).
(§1) E. coli was assayed for tolerance, metabolic activity and growth during exposure to various concentrations of 6-aminocaproate (6-ACA). Aerobically, cultures were able to grow media with up to 10% 6-ACA, while anaerobic cultures could grow in media with approximately 6% 6-ACA (FIG. 15). Because the pathway for producing 6-ACA could require anaerobic conditions, all other further testing was performed under anaerobic conditions. To assay tolerance, cultures were grown anaerobically to mid-log(0.3 OD) and early stationary phase (0.6 OD), the cells were spun down and resuspended in medium containing various concentrations of 6-ACA. The cultures were grown in capped microfuge tubes, grown overnight and the ODs of the cultures were assayed (FIG. 16). Under these conditions, cultures were able to grow (double at least 1 time) in up to 10% 6-ACA. The additional tolerance could have been from the additional glucose from resuspending the cultures in fresh M9-glucose medium or from limited oxygen that was present in the capped microfuge tube. […]

Data set [3] deals with E. coli. The data set is classed as cell-based, Escherichia coli. How it is done: FIG. 18, panels A and B, show the growth in various concentrations of 6-ACA with and without glycine betaine. Panel A. OD600 measurements of medium inoculated with midlog cultures of E. coli with various concentrations of 6-ACA with (right bars) and without (left bars) 2 mM glycine betaine. Panel B. Photograph showing the growth of same cultures in the anaerobic bottles.
At high concentrations (>65 g/L) the osmolarity of 6-ACA is ˜0.5 M which may cause osmotic stress. To determine osmotic stress as the basis for 6-ACA growth inhibition, cultures were grown in various concentrations of 6-ACA with and without the osmoprotectant glycine betaine. […] Therefore much of the toxicity of 6-ACA is likely due to the osmotic stress. However, it should be noted that […] is similar to the amino acid lysine and could have a greater toxic effect in the cell cytoplasm vs. outside the cell.

Data set [4] concerns E. coli. As to the kind of experiment: Ethanol production (metabolic activity) of E. coli cultures exposed to 6-ACA. It counts as cell-based, Escherichia coli. Particulars: resuspended cultures, overnight growth. How it is done: Midlog or early stationary cells were spun down and resuspended in fresh M9-Glucose medium with various concentrations of 6-ACA. After overnight growth, cultures were measured for growth by measuring OD600 and metabolic activity assayed by ethanol production.
as §1

In data set [5] the test system is E. coli. As to the kind of experiment: Tolerance of E. coli cells resuspended in medium with various concentrations of 6-ACA (OD after overnight growth). The data set is classed as cell-based, Escherichia coli. Conditions: cells grown anaerobically to mid-log (0.3 OD) and early stationary phase (0.6 OD), resuspended in fresh M9-glucose medium, capped microfuge tubes. As to the method: Midlog (OD600=0.3, lower dashed line) or early stationary (OD600=0.6, upper dashed line) cells were spun down and resuspended in fresh M9-Glucose medium with various concentrations of 6-ACA. After overnight growth, cultures were measured for growth by measuring OD600.
as §1

Data set [6] in a line: In vitro thiolase reactions with purified His-tagged thiolases, LC/MS analysis. The data set is classed as biochemical. Conditions: for Condensation of succinyl-CoA and acetyl-CoA into β-ketoadipyl-CoA: 0.5 μM purified thiolase, succinyl-CoA:acetyl-CoA 2:1, 30° C., 30 minutes, LC/MS; for Activities in the oxoadipyl-CoA forming direction: as summarised in Example XXVI. As to the method:
Succinyl-CoA and acetyl-CoA were added to His-tagged, purified thiolases at a ratio of 2:1 (succinyl-CoA:acetyl-CoA). Reactions were analyzed by LC/MS and quantified by comparison to a standard for acetoacetyl-CoA or peak area determined for 3-oxoadipyl-CoA (β-ketoadipyl-CoA).
For example, the gene products encoded by pcaF in Pseudomonas strain B13 (Kaschabek et al., J. Bacteriol, 184(1): 207-15 (2002)), phaD in Pseudomonas putida U (Olivera et al., Proc Nall Acad Sci USA, 95(11), 6419-24 (1998)), paaE in Pseudomonas fluorescens ST (Di Gennaro et al., Arch Microbiol, 188(2), 117-25 (2007)), and paaJ from E. coli (Nogales et al., Microbiology, 153(Pt 2), 357-65 (2007)) catalyze the conversion of 3-oxoadipyl-CoA into succinyl-CoA and acetyl-CoA during the degradation of aromatic compounds such as phenylacetate or styrene.
The genes were expressed in E. coli and the proteins purified using Ni-NTA spin columns and quantified. To assay enzyme activity in vitro, a […] CoA:DTNB (Ellman's reagent or 5,5′-dithiobis-(2-nitrobenzoic acid)) mixture was prepared. The mixture consisted of 10 mM succinyl-CoA, 5 mM acetyl-CoA, 30 mM DTNB in 100 mM Tris buffer, pH 7.4. […] of the CoA:DTNB mixture was added to 0.5 μM purified thiolase enzyme in 100 mM Tris buffer, pH 7.8 in a final volume of 50 μL. The reaction was incubated at 30° C. for 30 minutes, then quenched with 2.5 μL 10% formic acid and samples frozen at −20° C. until ready for analysis by LC/MS. Because many thiolases can condense two acetyl-CoA molecules into acetoaceytl-CoA, production of acetoacetyl-CoA was examined. […] These were fadAx from Pseudomonas putida, thiA from Clostridium acetobutylicum and thiB also from Clostridium acetobutylicum. […] There was excellent specificity between the thiolases.

Chain of Lysine decarboxylase (EC 4.1.1.18) (P0A9H3 whole entry): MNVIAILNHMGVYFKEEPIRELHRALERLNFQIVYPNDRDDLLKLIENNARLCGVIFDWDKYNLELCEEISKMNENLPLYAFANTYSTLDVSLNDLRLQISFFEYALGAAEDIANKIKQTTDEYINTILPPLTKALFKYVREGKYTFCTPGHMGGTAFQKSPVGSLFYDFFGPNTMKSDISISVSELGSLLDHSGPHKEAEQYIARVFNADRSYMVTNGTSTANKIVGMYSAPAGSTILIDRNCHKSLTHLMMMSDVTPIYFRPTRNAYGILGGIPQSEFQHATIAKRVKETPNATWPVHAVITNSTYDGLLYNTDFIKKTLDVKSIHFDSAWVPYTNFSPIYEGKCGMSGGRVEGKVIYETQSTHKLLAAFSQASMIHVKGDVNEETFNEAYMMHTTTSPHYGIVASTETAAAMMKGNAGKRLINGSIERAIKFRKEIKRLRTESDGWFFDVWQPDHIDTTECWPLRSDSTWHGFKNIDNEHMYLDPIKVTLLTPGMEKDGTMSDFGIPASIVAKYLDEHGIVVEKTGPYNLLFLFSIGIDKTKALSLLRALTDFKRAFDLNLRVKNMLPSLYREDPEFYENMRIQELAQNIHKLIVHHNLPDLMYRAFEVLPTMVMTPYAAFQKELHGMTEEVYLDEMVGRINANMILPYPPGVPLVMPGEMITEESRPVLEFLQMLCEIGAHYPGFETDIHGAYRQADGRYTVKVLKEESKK

Regarding `NC(CCCCC(=O)O)C(=O)O` (stereo not drawn) [2-Aminopimelate], the “Inhibition of lysine decarboxylase” value in data set [1] is on record as “competitive inhibitors”.

Take `NCCCCCC(=O)O` [6-ACA, 6-aminocaproic acid]: the “6-ACA concentration in media in which cultures were able to grow” value in the data set on E. coli [2] (aerobic) was “up to 10%”. Also, the “6-ACA concentration in media in which cultures could grow” value in the data set with E. coli [2] (anaerobic) is listed as “approximately 6%”. The “Inhibition of lysine decarboxylase” value in data set [1] is recorded as “competitive inhibitors”. Moreover, the “6-ACA concentration in medium allowing anaerobic growth” value with E. coli [3] is 4-6%. Also, the “Ethanol production (metabolic activity) in the presence of 6-ACA” value in the data set on E. coli [4] is given as “closely tracked with OD”. For the same molecule, the “6-ACA concentration in which cultures were able to grow (double at least 1 time)” value in the data set on E. coli [5] is on record as “up to 10%”.

B1: paaJ: β-ketothiolase paaJ from Escherichia coli, His-tagged, purified (protein, UniProt P0C7L2 1-401, looked up)
3-oxoadipyl-CoA/3-oxo-5,6-dehy …: MREAFICDGIRTPIGRYGGALSSVRADDLAAIPLRELLVRNPRLDAECIDDVILGCANQAGEDNRNVARMATLLAGLPQSVSGTTINRLCGSGLDALGFAARAIKAGDGDLLIAGGVESMSRAPFVMGKAASAFSRQAEMFDTTIGWRFVNPLMAQQFGTDSMPETAENVAELLKISREDQDSFALRSQQRTAKAQSSGILAEEIVPVVLKNKKGVVTEIQHDEHLRPETTLEQLRGLKAPFRANGVITAGNASGVNDGAAALIIASEQMAAAQGLTPRARIVAMATAGVEPRLMGLGPVPATRRVLERAGLSIHDMDVIELNEAFAAQALGVLRELGLPDDAPHVNPNGGAIALGHPLGMSGARLALAASHELHRRNGRYALCTMCIGVGQGIAMILERV
modifications: His-tag
notes: β-ketothiolase paaJ from Escherichia coli, His-tagged, purified
As for B1, in data set [6], the “Condensation of succinyl-CoA and acetyl-CoA into β-ketoadipyl-CoA” value (“Condensation” below) is on record as “demonstrated the desired activity”; the “Activities in the oxoadipyl-CoA forming direction” value was “significant and selective activities”.

B2: pcaF from Pseudomonas putida KT2440: β-ketothiolase pcaF from Pseudomonas putida KT2440 (protein, UniProt Q51956 1-400, looked up)
Beta-ketoadipyl-CoA thiolase: MRDVFICDAIRTPIGRFGGALAGVRADDLAAVPLKALIEPNPAVQWDQVDEVFFGCANQAGEDNRNVARMALLLAGLPESIPGVTLNRLCASGMDAIGTAFRAIASGEMELAIAGGVESMSRAPFVMGKAESGYSRNMKLEDTTIGWRFINPLMKSQYGVDSMPETADNVADDYQVSRADQDAFALRSQQKAAAAQAAGFFAEEIVPVRIAHKKGETIVERDEHLRPETTLEALTKLKPVNGPDKTVTAGNASGVNDGAAALILASAEAVKKHGLTPRARVLGMASGGVAPRVMGIGPVPAVRKLTERLGVAVSDFDVIELNEAFASQGLAVLRELGVADDAPQVNPNGGAIALGHPLGMSGARLVLTALHQLEKSGGRKGLATMCVGVGQGLALAIERV
With B2, the “Condensation” value in data set [6] was “demonstrated the desired activity”.

B3: pcaF from Pseudomonas aeruginosa PAO1: β-ketothiolase pcaF from Pseudomonas aeruginosa PAO1 (protein, UniProt Q9I6R0 1-401, looked up)
Beta-ketoadipyl-CoA thiolase: MSREVFICDAVRTPIGRFGGSLSAVRADDLAAVPLKALVERNPGVDWSALDEVFLGCANQAGEDNRNVARMALLLAGLPESVPGVTLNRLCASGMDAIGTAFRAIACGEMELAIAGGVESMSRAPYVMGKADSAFGRGQKIEDTTIGWRFVNPLMKEQYGIDPMPQTADNVADDYRVSRADQDAFALRSQQRAGRAQEAGFFAEEIVPVTIRGRKGDTLVEHDEHPRPDTTLEALARLKPVNGPEKTVTAGNASGVNDGAAALVLASAEAVEKHGLTPRARVLGMASAGVAPRIMGIGPVPAVRKLLRRLDLAIDAFDVIELNEAFASQGLACLRELGVADDSEKVNPNGGAIALGHPLGMSGARLVLTALHQLEKSGGRRGLATMCVGVGQGLALAIERV
On to B3, for which, in data set [6], the “Condensation” value is listed as “demonstrated the desired activity”; the “Activities in the oxoadipyl-CoA forming direction” value was “significant and selective activities”.
